Laboratory results taken from patent US10202604B2, “Methods of using microRNA-141” (Stemirna Therapeutics Co., Ltd., priority 2016, dated 2019).

Tests used:
Human RAC1 3'-UTR = test: 3'-UTR luciferase reporter assay; assay type: cell-based; conditions: Du145 cells; 30 nM miR-141 vs NC oligos
Method: (§1) Du145 cells transfected with NC or miR-141 oligos at the two doses and time intervals indicated were used in Western blotting. Indicated below are relative expression levels (normalized to respective GAPDH and compared to NC) of each protein determined by densitometric scanning of the individual bands. […] Bars, mean±SD. *P<0.05; **P<0.01. […] Du145 cells were co-transfected with NC or miR-141 oligos (30 nM) in combination with pcDNA3.1 (control) vector or pcDNA-RAC1 or pcDNA-CDC42 expression vector. After 48 h, cells were harvested for invasion assays. […] Du145 cells were infected with Lenti-141 or control lentivirus (MOI 10, 48 h) and then harvested to measure the Rho GTPase activities. Bars, mean±SD. *P<0.05. […] Du145 cells were transfected with the antisense oligos to NC or miR-141 (anti-141; 30 nM) and then used in invasion assays (FIG. 5E). In FIG. 5F and FIG. 5G Du145 cells were transfected with 10 nM of scramble siRNA control (siCon) or siRNAs targeting RAC1 (FIG. 5F) or CDC42 (FIG. 5G), either alone or in combination of anti-141 (30 nM). 48 h later, cells were harvested for invasion assays. Bars, mean±SD. *P<0.05; **P<0.01.
(§2) The human CD44 3′-UTR was amplified from Du145 genomic DNA using primers 5′-[…]-3′ (SEQ ID NO: 2) and 5′-[…]-3′ (SEQ ID NO: 3), as previously described (13). For site-specific mutagenesis, the region in the CD44 3′-UTR (SEQ ID NO: 4, shown with uracils) complementary to the seed sequence of miR-141 (SEQ ID NO: 1) were mutated (TAGTGTT to GGCGCGG; see FIG. 3D). The human EZH2 3′-UTR was amplified from Du145 genomic DNA using primers 5′-GAGCTC-CATCTGCTACCTCCTCCCC-3′ (SEQ ID NO: 6) and 5′-[…]-3′ (SEQ ID NO: 7). For site-specific mutagenesis, the region complementary to the seed sequence of miR-141 was mutated (AAAGTGTT to TATCACAA; see FIG. 6A). The PCR fragments were cloned into pGEM-T vector (Promega, Madison, Wis.) and sequence confirmed. Cells were plated in 24-well plates and co-transfected, using Lipofectamine 2000, with 1 μg firefly luciferase reporter plasmid and 5 ng Renilla plasmid (phRL-CMV) into which the 3′-UTR fragments were cloned. The luciferase activities were detected using Duo-luciferase reporter assay system (Promega). Human RAC1, CDC42, CDC42EP3, and ARPC5 3′-UTR luciferase reporter constructs were obtained from SwitchGear Genomics (Menlo Park, Calif.) and luciferase activities were measured per the manufacturer's instructions using LightSwitch luciferase assay kit.

Human CDC42 3'-UTR = test: 3'-UTR luciferase reporter assay; assay type: cell-based; conditions: Du145 cells; 30 nM miR-141 vs NC oligos
Method: as §1, §2

Human ARPC5 3'-UTR = test: 3'-UTR luciferase reporter assay; assay type: cell-based; conditions: Du145 cells; 30 nM miR-141 vs NC oligos
Method: as §1, §2

Human CDC42EP3 3'-UTR = test: 3'-UTR luciferase reporter assay; assay type: cell-based; conditions: Du145 cells; 30 nM miR-141 vs NC oligos
Method: as §1, §2

[1] = test system: RAC1, CDC42, ARPC5 and CDC42EP3; test: Western blotting of Rho GTPase signaling members; assay type: cell-based, human; conditions: Du145 cells, miR-141 over-expression
Method: as §1

CD44hi PC3 cells = test: Dorsal prostate implantation, tumor growth and lung metastasis; assay type: in vivo, NOD/SCID mice; conditions: miR-141 via lentiviral infection; 100,000 cells into dorsal prostate
Method: FACS-purified CD44^hi luciferase/GFP double-tagged PC3 cells were infected with Lenti-141 or Lenti-ctl (MOI 10) and 100,000 cells each were injected into the DP of NOD/SCID mice (n=9). Tumor growth and metastasis were monitored using bioluminescence imaging (IVIS). FIGS. 2A-2B show the representative images and quantification (in total photon flux) of primary tumors before termination of the experiment. FIGS. 2C-2D show the representative images (FIG. 2C) and quantification (FIG. 2D) of lung metastasis with the primary tumors covered. […] CD44^+ Du145 cells were infected with Lenti-ctl or Lenti-141 (MOI 10; 72 h) and cells were then injected into the DP of male NOD/SCID mice. Mice were terminated at day 56 and organs including lung were harvested for analyzing metastasis. Shown were representative IHC images of humanspecific Ki-67 staining. […] LAPC9-GFP cells were infected with TRIPZ-NS or TRIPZ-141 inducible lentivirus (MOI 10, 72 h) and CD44^+ cells were purified out by FACS. 100,000 cells each were injected into the DP of NOD/SCID mice and, from day 16 on, two groups of mice were treated with Dox (200 mg/kg body weight in feed). Tumor volumes were measure twice weekly (FIG. 2F). Mice were terminated at day 40 and endpoint tumors were harvested and weighted (FIG. 2G; incidence indicated in bars). […]

In the case of “miR-141: miR-141 mirVana mimics (Life Technologies); microRNA-141 oligonucleotide may have SEQ ID NO: 1; in some experiments over-expressed by lentiviral vectors (UAACACUGUCUGGUAAAGAUGG; listed as RNA, further chemistry not given here) [miR-141 mirVana mimics (Life Technologies); in some experiments over-expressed by lentiviral vectors]”, the “luciferase activity of RAC1 3'-UTR construct” value (Human RAC1 3'-UTR) is reported as “inhibited”, the “luciferase activity of CDC42 3'-UTR construct” value (Human CDC42 3'-UTR) is reported as “inhibited” and the “luciferase activity of ARPC5 3'-UTR construct” value (Human ARPC5 3'-UTR) is reported as “inhibited”. For the same substance, the “luciferase activity of CDC42EP3 3'-UTR construct” value (Human CDC42EP3 3'-UTR) was “inhibited”, the “protein levels of ARPC5, CDC42EP3, CDC42 and RAC1” value [1] was “downregulated, to varying degrees” and the lung metastasis (CD44hi PC3 cells) was “less”. For the same substance, the “primary tumors (size)” value (CD44hi PC3 cells) was “smaller”.
